Results as given in US6022495A, “Photochromic benzopyrano-fused naphthopyrans” (Transitions Optical, Inc., priority 1998, dated 2000).

Columns and labels:
[1] = Visible lambda max of the activated form in polymer test squares (Varian Cary 3 UV-Visible spectrophotometer); assay type: physicochemical; conditions: activated (colored) form in test square of BPA 2EO DMA / poly(ethylene glycol) 600 dimethacrylate, 1.5×10^-3 molal
Protocol: (§1) Testing was done with the photochromic compounds prepared in Examples 1-11 in the following manner. A quantity of each photochromic compound calculated to yield a 1.5×10^-3 molal solution was added to a flask containing 50 grams of a monomer blend of 4 parts ethoxylated bisphenol A dimethacrylate (BPA 2EO DMA), 1 part poly(ethylene glycol) 600 dimethacrylate, and 0.033 weight percent 2,2'-azobis(2-methyl propionitrile) (AIBN). Each photochromic compound was dissolved into the monomer blend by stirring and gentle heating. After a clear solution was obtained, it was poured into a flat sheet mold having the interior dimensions of 2.2 mm×6 inches (15.24 cm)×6 inches (15.24 cm). The mold was sealed and placed in a horizontal air flow, programmable oven programmed to increase the temperature from 40° C. to 95° C. over […], hold the temperature at 95° C. for 3 hours, lower it to 60° C. over a 2 hour interval and then hold at 60° C. for 16 hours. After the mold was opened, the polymer sheet was cut using a diamond blade saw into 2 inch (5.1 centimeters) test squares.
The Δ OD/min, which represents the sensitivity of the photochromic compound's response to UV light, was measured over the first five (5) seconds of UV exposure, then expressed on a per minute basis. The saturation optical density (Δ OD@ Saturation) was taken under identical conditions as the Δ OD/min, except UV exposure was continued for 15 minutes. The lambda max (Vis) is the wavelength in nanometers (nm) in the visible spectrum at which the maximum absorption of the activated (colored) form of the photochromic compound in a test square occurs. The lambda max (Vis) wavelength was determined by testing the photochromic test square polymerizates of Part A in a Varian Cary 3 UV-Visible spectrophotometer. The Bleach Rate (T 1/2) is the time interval in seconds for the absorbance of the activated form of the photochromic compound in the test squares to reach one half the highest absorbance at room temperature (72° F., 22.20C.) after removal of the source of activating light.

[2] = Photochromic response of polymer test squares on an optical bench; assay type: physicochemical; conditions: for ΔOD @ Saturation: UV exposure continued for 15 minutes; for ΔOD @ Saturation / Sensitivity ΔOD/min: 72° F. (22.2° C.); for Sensitivity ΔOD/min: first five (5) seconds of UV exposure, expressed per minute; for Bleach Rate T 1/2: time for absorbance of activated form to reach one half the highest absorbance at room temperature (72° F.) after removal of activating light
Protocol: as §1
The photochromic test squares prepared in Part A were tested for photochromic response on an optical bench. Prior to testing on the optical bench, the photochromic test squares were exposed to 365 nanometer ultraviolet light for about 15 minutes to activate the photochromic compounds and then placed in a 76° C. oven for about 15 minutes to bleach or inactivate the photochromic compounds. The test squares were then cooled to room temperature, exposed to fluorescent room lighting for at least 2 hours and then kept covered for at least 2 hours prior to testing on an optical bench maintained at 72° F. (22.2° C.). The bench was fitted with a 150 watt Xenon arc lamp, a remote controlled shutter, a copper sulfate bath acting as a heat sink for the arc lamp, a Schott WG-320 nm cut-off filter which removes short wavelength radiation; neutral density filter(s) and a sample holder in which the square to be tested was inserted. The power output of the optical bench, i.e., the dosage of light that the sample lens would be exposed to, was calibrated with a photochromic test square used as a reference standard. […] The UV-A detector was placed into the sample holder and the light output was measured. Adjustments to the power output were made by increasing or decreasing the lamp wattage or by adding or removing neutral density filters in the light path.
A monitoring, collimated beam of light from a tungsten lamp was passed through the square at a small angle (approximately […]) normal to the square. After passing through the square, the light from the tungsten lamp was directed to a detector through Spectral Energy Corp. GM-200 monochromator set at the previously determined visible lambda max of the photochromic compound being measured. The output signals from the detector were processed by a radiometer.
Change in optical density (ΔOD) was determined by inserting a test square in the bleached state into the sample holder, adjusting the transmittance scale to 100%, opening the shutter from the Xenon lamp to provide ultraviolet radiation to change the test square from the bleached state to an activated (i.e., darkened) state, measuring the transmittance in the activated state, and calculating the change in optical density according to the formula: ΔOD=log(100/% Ta), where % Ta is the percent transmittance in the activated state and the logarithm is to the base 10.
The Δ OD/min, which represents the sensitivity of the photochromic compound's response to UV light, was measured over the first five (5) seconds of UV exposure, then expressed on a per minute basis. The saturation optical density (Δ OD@ Saturation) was taken under identical conditions as the Δ OD/min, except UV exposure was continued for 15 minutes. […]

| lambda max (Vis) [1] | ΔOD @ Saturation [2] | Sensitivity ΔOD/min [2] | Bleach Rate T 1/2 [2] | Compound |
| --- | --- | --- | --- | --- |
| 484 nanometers | 0.26 | 0.69 ΔOD/min | 19 s | O=c1oc2ccccc2c2c1c1c(c3ccccc32)OC(c2ccccc2)(c2ccccc2)C=C1 [Compound 10, 6,6-diphenyl-9-oxo-6,9-dihydro[1]benzopyrano[3',4':3,4]naphtho(1,2-b)pyran] |
| 570 nanometers | 0.12 | 0.21 ΔOD/min | 37 s | O=c1oc2c3ccccc3c3c(c2c2ccccc12)OC(c1ccccc1)(c1ccc(N2CCOCC2)cc1)C=C3 (centres unmarked) [Compound 5A, 2-(4-morpholinophenyl)-2-phenyl-10-oxo-2,10-dihydro[2]benzopyrano[4',3':3,4]naphtho(2,1-b)pyran] |
